Assay results reported in patent US9944602B2, “Piperidinone herbicides” (E. I. DU PONT DE NEMOURS AND COMPANY, priority 2014, dated 2018).

Legend:
Assay type in all cases: in vivo
[1] = test system: sedge, umbrella (small-flower umbrella sedge, Cyperus difformis); experiment: Test B flooded paddy test sedge, umbrella; conditions: Cyperus difformis, Table B, Flood, scale 0 to 100, read-out: Plant response rating; for pest or weed control at 250 g/ha: 250 g ai/ha
Procedure, shortened: (§1)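 Plants at 2-leaf stage in pots flooded 3 cm above soil; compounds applied directly into paddy water, depth kept throughout.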

kochia (Kochia scoparia) [2] = experiment: Test A postemergence kochia; conditions: Bassia scoparia, post-emergence, 240 h, 0 to 100 scale, 0 is no effect, 100 is complete control, read-out: Plant response rating, Kochia; for pest or weed control at 125 g/ha: 125 g ai/ha; for pest or weed control at 500 g/ha: 500 g ai/ha
Procedure, shortened: (§2)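 Plants were grown in a blend of loam soil and sand. For preemergence testing the soil was sprayed directly after seeding, while postemergence testing used seedlings 2–10 cm high at one to two leaves; all treatments were rated visually for injury (0–100) after ~10 d.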

[3] = test system: ducksalad (Heteranthera limosa); experiment: Test B flooded paddy test ducksalad; conditions: Heteranthera limosa, Table B, Flood, scale 0 to 100, read-out: Plant response rating; for pest or weed control at 250 g/ha: 250 g ai/ha
Procedure, shortened: as §1

[4] = test system: foxtail, giant (giant foxtail, Setaria faberii); experiment: Test A postemergence foxtail, giant; conditions: Setaria faberi, post-emergence, 240 h, 0 to 100 scale, 0 is no effect, 100 is complete control, read-out: Plant response rating, Foxtail, Giant; for pest or weed control at 125 g/ha: 125 g ai/ha; for pest or weed control at 500 g/ha: 500 g ai/ha
Procedure, shortened: as §2

[5] = test system: pigweed (Amaranthus retroflexus); experiment: Test A preemergence pigweed; conditions: Amaranthus retroflexus, pre-emergence, 240 h, 0 to 100 scale, 0 no effect, 100 complete control, read-out: Pigweed plant response rating; for pest or weed control at 125 g/ha: 125 g ai/ha; for pest or weed control at 500 g/ha: 500 g ai/ha
Procedure, shortened: as §2

[6] = test system: pigweed (Amaranthus retroflexus); experiment: Test A postemergence pigweed; conditions: Amaranthus retroflexus, post-emergence, 240 h, 0 to 100 scale, 0 is no effect, 100 is complete control, read-out: Plant response rating, Pigweed; for pest or weed control at 125 g/ha: 125 g ai/ha; for pest or weed control at 500 g/ha: 500 g ai/ha
Procedure, shortened: as §2

[7] = test system: foxtail, giant (giant foxtail, Setaria faberii); experiment: Test A preemergence foxtail, giant; conditions: Setaria faberi, pre-emergence, 240 h, 0 to 100 scale, 0 no effect, 100 complete control, read-out: Foxtail, Giant plant response rating; for pest or weed control at 125 g/ha: 125 g ai/ha; for pest or weed control at 500 g/ha: 500 g ai/ha
Procedure, shortened: as §2

[8] = test system: wheat (Triticum aestivum); experiment: Test A postemergence wheat; conditions: Triticum aestivum, post-emergence, 240 h, 0 to 100 scale, 0 is no effect, 100 is complete control, read-out: Plant response rating, Wheat; for plant injury at 125 g/ha: 125 g ai/ha; for plant injury at 500 g/ha: 500 g ai/ha
Procedure, shortened: as §2

[9] = test system: ragweed (common ragweed, Ambrosia elatior); experiment: Test A preemergence ragweed; conditions: Ambrosia artemisiifolia, pre-emergence, 240 h, 0 to 100 scale, 0 no effect, 100 complete control, read-out: Ragweed plant response rating; for pest or weed control at 125 g/ha: 125 g ai/ha; for pest or weed control at 500 g/ha: 500 g ai/ha
Procedure, shortened: as §2

corn (Zea mays) = experiment: Test A postemergence corn; conditions: Zea mays, post-emergence, 240 h, 0 to 100 scale, 0 is no effect, 100 is complete control; for Corn plant response rating (crop injury, 0 = no effect, 100 = complete kill) at 125 g/ha: 125 g ai/ha; for Corn plant response rating (crop injury, 0 = no effect, 100 = complete kill) at 500 g/ha: 500 g ai/ha
Procedure, shortened: as §2

[10] = test system: ryegrass, Italian (Italian ryegrass, Lolium multiflorum); experiment: Test A preemergence ryegrass, Italian; conditions: Lolium multiflorum, pre-emergence, 240 h, 0 to 100 scale, 0 no effect, 100 complete control, read-out: Ryegrass, Italian plant response rating; for pest or weed control at 125 g/ha: 125 g ai/ha; for pest or weed control at 500 g/ha: 500 g ai/ha
Procedure, shortened: as §2

kochia (Kochia scoparia) [11] = experiment: Test A preemergence kochia; conditions: Bassia scoparia, pre-emergence, 240 h, 0 to 100 scale, 0 no effect, 100 complete control, read-out: Kochia plant response rating; for pest or weed control at 125 g/ha: 125 g ai/ha; for pest or weed control at 500 g/ha: 500 g ai/ha
Procedure, shortened: as §2

[12] = test system: ryegrass, Italian (Italian ryegrass, Lolium multiflorum); experiment: Test A postemergence ryegrass, Italian; conditions: Lolium multiflorum, post-emergence, 240 h, 0 to 100 scale, 0 is no effect, 100 is complete control, read-out: Plant response rating, Ryegrass, Italian; for pest or weed control at 125 g/ha: 125 g ai/ha; for pest or weed control at 500 g/ha: 500 g ai/ha
Procedure, shortened: as §2

[13] = test system: barnyardgrass (Echinochloa crus-galli); experiment: Test B flooded paddy test barnyardgrass; conditions: Echinochloa crus-galli, Table B, Flood, scale 0 to 100, read-out: Plant response rating; for pest or weed control at 250 g/ha: 250 g ai/ha
Procedure, shortened: as §1

[14] = test system: blackgrass (Alopecurus myosuroides); experiment: Test A postemergence blackgrass; conditions: Alopecurus myosuroides, post-emergence, 240 h, 0 to 100 scale, 0 is no effect, 100 is complete control, read-out: Plant response rating, Blackgrass; for pest or weed control at 125 g/ha: 125 g ai/ha; for pest or weed control at 500 g/ha: 500 g ai/ha
Procedure, shortened: as §2

[15] = test system: barnyardgrass (Echinochloa crus-galli); experiment: Test A preemergence barnyardgrass; conditions: 0 to 100 scale; for pest or weed control at 125 g/ha: 125 g ai/ha
Procedure, shortened: as §2

[16] = test system: galium (catchweed bedstraw, Galium aparine); experiment: Test A postemergence galium; conditions: Galium, post-emergence, 240 h, 0 to 100 scale, 0 is no effect, 100 is complete control, read-out: Plant response rating, Galium; for pest or weed control at 125 g/ha: 125 g ai/ha; for pest or weed control at 500 g/ha: 500 g ai/ha
Procedure, shortened: as §2

rice (Oryza sativa) = experiment: Test B flooded paddy test rice; conditions: Oryza sativa, Table B, Flood, scale 0 to 100, read-out: Plant response rating; for plant injury at 250 g/ha: 250 g ai/ha
Procedure, shortened: as §1

[17] = test system: barnyardgrass (Echinochloa crus-galli); experiment: Test A postemergence barnyardgrass; conditions: Echinochloa crus-galli, post-emergence, 240 h, 0 to 100 scale, 0 is no effect, 100 is complete control, read-out: Plant response rating, Barnyardgrass; for pest or weed control at 125 g/ha: 125 g ai/ha; for pest or weed control at 500 g/ha: 500 g ai/ha
Procedure, shortened: as §2

[18] = test system: ragweed (common ragweed, Ambrosia elatior); experiment: Test A postemergence ragweed; conditions: Ambrosia artemisiifolia, post-emergence, 240 h, 0 to 100 scale, 0 is no effect, 100 is complete control, read-out: Plant response rating, Ragweed; for pest or weed control at 125 g/ha: 125 g ai/ha; for pest or weed control at 500 g/ha: 500 g ai/ha
Procedure, shortened: as §2

[19] = Echinochloa crus-galli, pre-emergence, 240 h, 0 no effect, 100 complete control, read-out: Barnyardgrass plant response rating

| SMILES | pest or weed control at 250 g/ha [1] [%] | pest or weed control at 125 g/ha (kochia (Kochia scoparia) [2]) [%] | pest or weed control at 500 g/ha (kochia (Kochia scoparia) [2]) [%] | pest or weed control at 250 g/ha [3] [%] | pest or weed control at 125 g/ha [4] [%] | pest or weed control at 500 g/ha [4] [%] | pest or weed control at 125 g/ha [5] [%] | pest or weed control at 500 g/ha [5] [%] | pest or weed control at 125 g/ha [6] [%] | pest or weed control at 500 g/ha [6] [%] | pest or weed control at 125 g/ha [7] [%] | pest or weed control at 500 g/ha [7] [%] | plant injury at 125 g/ha [8] [%] | plant injury at 500 g/ha [8] [%] | pest or weed control at 125 g/ha [9] [%] | pest or weed control at 500 g/ha [9] [%] | Corn plant response rating (crop injury, 0 = no effect, 100 = complete kill) at 125 g/ha (corn (Zea mays)) [%] | Corn plant response rating (crop injury, 0 = no effect, 100 = complete kill) at 500 g/ha (corn (Zea mays)) [%] | pest or weed control at 125 g/ha [10] [%] | pest or weed control at 500 g/ha [10] [%] | also measured |
| --- | --- | --- | --- | --- | --- | --- | --- | --- | --- | --- | --- | --- | --- | --- | --- | --- | --- | --- | --- | --- | --- |
| O=C1NCCC(c2ccc(C(F)(F)F)cc2)C1C(=O)Nc1ccccc1Cl (stereo not shown) [Compound 13, N-(2-chlorophenyl)-2-oxo-4-[4-(trifluoromethyl)phenyl]-3-piperidinecarboxamide] | 0 | 0 | 0 | 70 | 30 | 90 | 0 | 0 | 0 | 0 | 70 | 90 | 0 | 0 | 0 | 0 | 0 | 0 | 0 | 0 | pest or weed control at 1000 g/ha ([1]; 1000 g ai/ha): 0%; pest or weed control at 1000 g/ha ([3]; 1000 g ai/ha): 100%; pest or weed control at 125 g/ha (kochia (Kochia scoparia) [11]): 0%; pest or weed control at 500 g/ha (kochia (Kochia scoparia) [11]): 40%; pest or weed control at 125 g/ha [12]: 0%; pest or weed control at 500 g/ha [12]: 0%; pest or weed control at 250 g/ha [13]: 0%; pest or weed control at 1000 g/ha ([13]; 1000 g ai/ha): 40%; pest or weed control at 125 g/ha [14]: 0%; pest or weed control at 500 g/ha [14]: 0%; Plant response rating, Barnyardgrass ([15]; 500 g ai/ha, 0 is no effect, 100 is complete control): 70; pest or weed control at 125 g/ha [15, 19]: 40%; pest or weed control at 125 g/ha [16]: 0%; pest or weed control at 500 g/ha [16]: 0%; plant injury at 250 g/ha (rice (Oryza sativa)): 0%; plant injury at 1000 g/ha (rice (Oryza sativa); 1000 g ai/ha): 0%; pest or weed control at 125 g/ha [17]: 30%; pest or weed control at 500 g/ha [17]: 90%; pest or weed control at 125 g/ha [18]: 0%; pest or weed control at 500 g/ha [18]: 0% |
| O=C1NCC[C@H](c2cccc(C(F)(F)F)c2)[C@H]1C(=O)Nc1cccc(F)c1F [Compound 21, (3R,4S)—N-(2,3-difluorophenyl)-2-oxo-4-[3-(trifluoromethyl)phenyl]-3-piperidinecarboxamide] | 0 | 0 | 0 | 100 | 80 | 80 | 0 | 0 | 0 | 20 | 90 | 90 | 0 | 60 | 0 | 0 | 50 | 80 | 0 | 60 | pest or weed control at 125 g/ha (kochia (Kochia scoparia) [11]): 0%; pest or weed control at 500 g/ha (kochia (Kochia scoparia) [11]): 0%; pest or weed control at 125 g/ha [12]: 30%; pest or weed control at 500 g/ha [12]: 40%; pest or weed control at 250 g/ha [13]: 75%; pest or weed control at 125 g/ha [14]: 60%; pest or weed control at 500 g/ha [14]: 80%; pest or weed control at 125 g/ha [15, 19]: 90%; pest or weed control at 500 g/ha ([15]; Echinochloa crus-galli, pre-emergence, 240 h, 500 g ai/ha, 0 no effect, 100 complete control, read-out: Barnyardgrass plant response rating): 90%; pest or weed control at 125 g/ha [16]: 0%; pest or weed control at 500 g/ha [16]: 20%; plant injury at 250 g/ha (rice (Oryza sativa)): 10%; pest or weed control at 125 g/ha [17]: 90%; pest or weed control at 500 g/ha [17]: 90%; pest or weed control at 125 g/ha [18]: 0%; pest or weed control at 500 g/ha [18]: 0% |
